Measured values as given in patent publication US9175022B2, “Compounds for the treatment of proliferative disorders” (Synta Pharmaceuticals Corp., priority 2005, dated 2015).

Tests used:
MES-SA = experiment: In vitro cytotoxicity, MTS assay, 72 hours; type: cell-based; conditions: Homo sapiens, read-out: IC50 (concentration required to inhibit 50% tumor cell growth)
Experimental: (§1) The in vitro cytotoxicity of the compounds of the invention was determined in the following human cell lines: HL-60, HL-60-TX1000 (MDR), MES-SA and MES-SA/DX5 (uterine sarcoma). MES-SA is a model of uterine sarcoma, and the cells are sensitive to a number of chemotherapeutic agents including doxorubicin, dactinomycin, mitomycin C, taxol and bleomycin. The MES-SA/Dx5 cell line was established in the presence of increasing concentrations of doxorubicin. […] All cells except HL-60-TX1000 were purchased from ATCC. HL-60, a model of myeloid leukemia, was from ATCC and HL60/TX1000 was a gift from Dr. Bhalla of Emory University School of Medicine. HL-60/TX1000 was isolated in vitro by subculturing HL-60 in progressively higher concentration of Taxol. HL-60/TX1000 cells over-express mdr-1 mRNA and p-glycoprotein, as determined by western blot and immunofluorescence labeling with antiPGP antibodies
(§2) The cell lines were maintained in RPMI1640 (GIBCO) supplemented with 10% FCS, 100 units/mL penicillin, 100 ug/ml streptomycin, and 2 mM L-glutamine. Cells were split every third day and diluted to a concentration of 2×10^5 cells/mL one day before the experiment was performed. All experiments were performed on exponentially growing cell cultures. Cell densities were 2.5×10^4 cells/mL in all experiments.
(§3) Test compounds were prepared by dissolving the compounds at a concentration of 10 mM in 100% DMSO. Final concentrations 10, 1, 0.1, 0.01 and 0.001 μM were obtained by diluting the stock solution directly into the tissue culture medium. Cells were incubated with varying concentrations of test compounds for 72 hours and the IC50 was determined by MTS (i.e. […]) assay. IC50 in this context stands for the concentration of a compound required to inhibit 50% tumor cell growth.

[1] = system: MES-SA/DX5 (uterine sarcoma); experiment: In vitro cytotoxicity, MTS assay, 72 hours; type: cell-based; conditions: Homo sapiens, MES-SA/DX5 multi-drug resistant, read-out: IC50 (concentration required to inhibit 50% tumor cell growth)
Experimental: as §1, §2, §3

HL-60 = experiment: In vitro cytotoxicity, MTS assay, 72 hours; type: cell-based; conditions: Homo sapiens, HL-60, 72 hours, read-out: IC50 (concentration required to inhibit 50% tumor cell growth)
Experimental: as §1, §2, §3

HL-60-TX1000 (MDR) = experiment: In vitro cytotoxicity, MTS assay, 72 hours; type: cell-based; conditions: Homo sapiens, HL60/TX1000, HL-60-TX1000 multi-drug resistant, read-out: IC50 (concentration required to inhibit 50% tumor cell growth)
Experimental: as §1, §2, §3

[2] = system: MDA-MB-435S melanoma cells or RERF-LC-AI lung tumor cells; experiment: Anti-tumor activity in nude mouse xenograft models; type: in vivo; conditions: i.v.
Experimental: The human tumor cell line, MDA-MB-435S (ATCC #HTB-129; G. Ellison, et al., Mol. Pathol. 55:294-299, 2002), is obtained from the American Type Culture Collection (ATCC; Manassas, Va., USA). The human tumor cell line, RERF-LC-AI (RCB0444; S. Kyoizumi, et al., Cancer. Res. 45:3274-3281, 1985), is obtained from the Riken Cell Bank (RCB; Tsukuba, Ibaraki, Japan). The cell lines are cultured in growth media prepared from 50% Dulbecco's Modified Eagle Medium (high glucose), 50% RPMI Media 1640, 10% fetal bovine serum (FBS), 1% 100×L-glutamine, 1% 100× Penicillin-Streptomycin, 1% 100× sodium pyruvate and 1% 100×MEM non-essential amino acids. FBS is obtained from ATCC and all other reagents are obtained from Invitrogen Corp. (Carlsbad, Calif., USA). […] The supernatant is aspirated and the cell pellet is resuspended in 10 mL of growth media and the cell number is determined using a hemocytometer. […]
Tumors are then permitted to develop in vivo until they reached approximately 100-200 mm^3 in volume, which typically required 2-3 weeks following implantation. Tumor volumes (V) are calculated by caliper measurement of the width (W), length (L) and thickness (T) of tumors using the following formula: V=0.5326×(L×W×T). […]

CV-1 cells = experiment: Microtubule disruption in cells resistant to colchicine and vincristine; type: cell-based; conditions: 500 nM; 24, 48 and 72 hr
Experimental: The effects of compounds of the invention on microtubules can be studied in CV-1 cells. The microtubules of CV-1 cells are known to be resistant to the depolymerizing effects of colchicine and vincristine. CV-1 cells are treated with 500 nM of a compound of the invention, or vincristine or colchicines. At 24, 48 and 72 hr the cells are fixed and stained to examine microtubule structure. In cells treated with compounds of the invention, microtubule structures are expected to be diminished compared to untreated cells.

[3] = system: CHO-α-tubulin-YFP or MCF7-α-tubulin-YFP cells; experiment: Inhibition of tubulin polymerization, tubulin-YFP fluorescence imaging; type: cell-based; conditions: living or fixed cells, fluorescence microscopy
Excerpt: Wild-type Chinese Hamster Ovary cells (WT CHO) cells are maintained in Ham's F-12 medium supplemented with 10% fetal bovine serum (FBS; HyClone, Logan, Utah). Cells of low density (−20%) growing on 2-well chambered cover-slips (Labtek (Campbell, Calif.) or Fisher Scientific) are transfected with a mammalian expression vector encoding α-tubulin-YFP (Clontech, Palo Alto, Calif.) with the use of FuGENE 6 (Roche Molecular Biochemicals, Indianapolis, Ind.), according to the manufacturer's instructions. Twenty-four hours after transfection, the cells are cultured in 400 μg/ml G418 (Invitrogen, Carlsbad, Calif.)-containing selection medium for 2 weeks. Living cells are examined using a fluorescent microscope for α-tubulin-YFP expression. […] Expressed tubulin-YFP is detected as a single band in Western blots. […]
CHO-α-tubulin-YFP or MCF7-α-tubulin-YFP cells are cultured in 2-well chambered cover-slips (Labtek (Campbell, Calif.) or Fisher Scientific) for 24 hours before treatment with a compound of the invention. […] Tubulin-YFP fluorescence in living cells or fixed cells is captured using a standard filter for FITC and objectives of 20× or 60× magnification on a Nikon TE300 microscope with a Leica DC50 color digital camera (Leica, Bannockburn, Ill.) or a CoolSnap HQ monochrome CCD camera (Photonetrics, Tucson, Ariz.). […]

Question: For `COc1cc(-n2nncc2-c2ccc(N(C)C)cc2)cc(OC)c1OC` [Compound 5, 1-(3,4,5-trimethoxy-phenyl)-5-[4-(N,N-dimethylamino)-phenyl]-1H-[1,2,3]triazole], which IC50 (MES-SA) is on record?
Answer: The IC50 was 68.5 nM.

Question: What about the IC50 [1] of the same compound?
Answer: The IC50 was 29 nM.

Question: And the IC50 (HL-60)?
Answer: Its IC50 is 41.5 nM.

Question: What about the IC50 (HL-60-TX1000 (MDR)) of the same compound?
Answer: The IC50 was 7.5 nM.

Question: For `CC(=O)O[C@H]1C(=O)[C@@]2(C)[C@H]([C@H](OC(=O)c3ccccc3)[C@]3(O)C[C@H](OC(=O)[C@H](O)[C@@H](NC(=O)c4ccccc4)c4ccccc4)C(C)=C1C3(C)C)[C@]1(OC(C)=O)CO[C@@H]1C[C@@H]2O` [paclitaxel, reference compound], which tumor growth ([2]; 3 days per week, 9-10 doses, compounds 6.25, 12.5 and 25 mg/kg, paclitaxel 7.5 mg/kg) is on record?
Answer: The tumor growth was “decreased tumor growth”.

Question: How did the IC50 (MES-SA) turn out when `COc1ccc(-c2cnnn2-c2cc(OC)c(OC)c(OC)c2)cc1` [Compound 3, 1-(3,4,5-trimethoxy-phenyl)-5-(4-methoxy-phenyl)-1H-[1,2,3]triazole] was run?
Answer: The IC50 was 52 nM.

Question: And the IC50 [1]?
Answer: The IC50 was 37 nM.

Question: What about the IC50 (HL-60) of the same compound?
Answer: Its IC50 is 53 nM.

Question: What about the IC50 (HL-60-TX1000 (MDR)) of the same compound?
Answer: Its IC50 is 20 nM.

Question: What about the “overt toxicity (effect on body weights)” value ([2]; nude mice) of the same compound?
Answer: The value was “minimal”.

Question: For `CC[C@]1(O)C[C@H]2CN(CCc3c([nH]c4ccccc34)[C@@](C(=O)OC)(c3cc4c(cc3OC)N(C=O)[C@H]3[C@@](O)(C(=O)OC)[C@H](OC(C)=O)[C@]5(CC)C=CCN6CC[C@]43[C@@H]65)C2)C1` [vincristine, Vincristine], which microtubule structure (CV-1 cells) is on record?
Answer: Its microtubule structure is “Disorganized but clear microtubule structures”.

Question: For `CC(=O)O[C@H]1C(=O)[C@@]2(C)[C@H]([C@H](OC(=O)c3ccccc3)[C@]3(O)C[C@H](OC(=O)[C@H](O)[C@@H](NC(=O)c4ccccc4)c4ccccc4)C(C)=C1C3(C)C)[C@]1(OC(C)=O)CO[C@@H]1C[C@@H]2O` [Taxol, paclitaxel, reference compound], which IC50 (MES-SA) is on record?
Answer: The IC50 was 5 nM.

Question: What about the IC50 [1] of the same compound?
Answer: The IC50 was 5000 nM.

Question: And the IC50 (HL-60)?
Answer: The IC50 was 2 nM.

Question: What about the IC50 (HL-60-TX1000 (MDR)) of the same compound?
Answer: Its IC50 is 1000 nM.

Question: What about the “tubulin-YFP labeled microtubule pattern” value [3] of the same compound?
Answer: The value was “microtubule bundle formation”.

Question: With `COc1cc2c(c(OC)c1OC)-c1ccc(OC)c(=O)cc1[C@@H](NC(C)=O)CC2` [colchicines, colchicine] as the compound, how does the microtubule structure (CV-1 cells) read?
Answer: Its microtubule structure is “Disorganized but clear microtubule structures”.
